Photoluminescence quantum yield data for 41 compounds are collected here from the Deep4Chem optical property database.

Structures are written as SMILES.

This data set in a line: photoluminescence quantum yield (fraction); solvent given as SMILES.

For `CCCCN(CCCC)c1ccc(C#Cc2cc(C#Cc3c(F)c(F)c(F)c(F)c3F)c(C#Cc3c(F)c(F)c(F)c(F)c3F)cc2C#Cc2ccc(N(CCCC)CCCC)cc2)cc1`, the photoluminescence quantum yield (in ClCCl) worked out at 0.17.

The compound `CCC1(CC)c2cc(C#Cc3cccs3)ccc2-c2c1c1c(c3c2C(CC)(CC)c2cc(C#Cc4cccs4)ccc2-3)C(CC)(CC)c2cc(C#Cc3cccs3)ccc2-1` displayed a photoluminescence quantum yield (in C1CCOC1) of 0.58.

With `COc1c2ccccc2c(OC)c2c1c1ccccc1n2C`, the photoluminescence quantum yield came to 0.46 (in C1CCCCC1), 0.55 (in CC#N), 0.39 (in CO) and 0.41 (in ClCCl).

For the compound `Cc1cccc(-c2c3ccccc3cc3ccccc23)n1`, the photoluminescence quantum yield (in ClCCl) came out at 0.48.

`c1ccc(/C(=C(\c2ccccc2)c2cc(-c3ccccc3)ccc2-c2ccc(-c3ccccc3)cc2)c2cc(-c3ccccc3)ccc2-c2ccc(-c3ccccc3)cc2)cc1` yielded a photoluminescence quantum yield (in C1CCOC1) of 0.38.

`COc1cc(C)c(-c2cc(-c3c(C)cc(OC)cc3C)c3ccc4c(-c5c(C)cc(OC)cc5C)cc(-c5c(C)cc(OC)cc5C)c5ccc2c3c54)c(C)c1` returned a photoluminescence quantum yield (in ClCCl) of 0.38.

As for `CC(C)(C)c1ccc(-c2cc3c4c(c2)CCc2cc(-c5ccc(C(C)(C)C)cc5)cc(c2-4)CC3)cc1`, the photoluminescence quantum yield is, setting by setting: (in C1CCCCC1) 0.61; (in C1CCOC1) 0.68; (in CC#N) 0.55; (in CCCCCC) 0.52; (in CCO) 0.48; (in CN(C)C=O) 0.66. Also, the photoluminescence quantum yield amounted to 0.39 (in CO), 1 (in Cc1ccccc1), 0.53 (in ClC(Cl)Cl) and 1 (in ClCCl).

Turning to `CCC1(CC)c2cc(B(c3c(C)cc(C)cc3C)c3c(C)cc(C)cc3C)ccc2-c2c1c1c(c3c2C(CC)(CC)c2cc(B(c4c(C)cc(C)cc4C)c4c(C)cc(C)cc4C)ccc2-3)C(CC)(CC)c2cc(B(c3c(C)cc(C)cc3C)c3c(C)cc(C)cc3C)ccc2-1`, under “in C1CCOC1”, the photoluminescence quantum yield was found to be 0.34.

Compound `F[B-]1(F)n2c(c3c(c2-c2ccccc2)C2C=CC3CC2)C(c2ccccc2)=C2C3=C(C(c4ccccc4)=[N+]21)C1C=CC3CC1` (stereo unspecified) had a photoluminescence quantum yield (in ClCCl) of 0.87.

On to `CCN(CC)c1ccc(-n2c(C)ccc2C)cc1`, for which the photoluminescence quantum yield runs as follows: (in CC#N) 0.24; (in CCCCCC) 0.17.

For the setting “in c1ccccc1”, `CN(C)c1ccc2nc(-c3ccccc3)c(=O)oc2c1` had a photoluminescence quantum yield of 0.526.

`COC(=O)[C@]12N=N[C@](C(=O)OC)(C3C4C5C4C5C31)C1C3C4C3C4C12` (stereo partly specified) yielded a photoluminescence quantum yield (in CC#N) of 0.039.

With `O=P1(c2ccccc2)c2cc(N3c4ccccc4Oc4ccccc43)ccc2-c2ccc(N3c4ccccc4Oc4ccccc43)cc21`, the photoluminescence quantum yield was determined as 0.47 (in Cc1ccccc1) and 0.41 (in c1ccc2c(c1)c1ccccc1n2-c1ccc(-c2ccc(-n3c4ccccc4c4ccccc43)cc2)cc1).

In the case of `CCNc1cc2c(cc1C)C(c1ccccc1C(=O)O)=C1CCCC(/C=C/C3=[N+](C)c4ccccc4C3(C)C)=C1O2`, the photoluminescence quantum yield reads like this: (in CC#N) 0.32; (in CCO) 0.56; (in CO) 0.55; (in ClC(Cl)Cl) 0.54.

For the compound `CCOC(=O)COc1ccc(/C=C/c2cc(C)c3n2[B-](F)(F)[N+]2=C(c4[nH]c(C)cc4C)c4ccccc4C2=C3)cc1`, the photoluminescence quantum yield is 0.34 (in C1CCOC1); 0.3 (in CC#N); 0.73 (in CCCCCC); 0.08 (in CO); 0.69 (in Cc1ccccc1); 0.75 (in ClCCl).

On to `N#Cc1c(C#N)c2cc(Cl)c(Cl)cc2c2cc(Cl)c(Cl)cc12`, for which, for the setting “in ClC(Cl)Cl”, the photoluminescence quantum yield turned out to be 0.01.

As for `O=c1oc2ccccc2c2c1c(=O)oc1ccc3ccc(O)cc3c12`, the photoluminescence quantum yield stood at 0.02 (in CS(C)=O) and 0.22 (in ClCCl).

`c1ccc(-p2c(-c3cccs3)cc3ccccc32)cc1` (stereo unspecified) had a photoluminescence quantum yield (in C1CCOC1) of 0.07.

Where the note is “in ClCCl”, `CCCCn1c2ccc(C#N)cc2c2cc(C#N)ccc21` yielded a photoluminescence quantum yield of 0.1.

`Clc1ccc(/C=C(\c2ccccc2)c2nc3ccccc3s2)cc1`: the photoluminescence quantum yield is, setting by setting: (in C1CCCCC1) 0.001; (in CO) 0.001.

Take `Ic1ccc(-c2c3ccc(=[N+]4CCCCC4)cc-3oc3cc(N4CCCCC4)ccc23)cc1`: the photoluminescence quantum yield by setting is: (in CCO) 0.28; (in ClCCl) 0.85.

On to `CN(C)c1ccc(C2=Cc3ccc4ccccc4[n+]3[B-](F)(F)O2)cc1`, for which the photoluminescence quantum yield is 0.517 (in C1CCOC1); 0.735 (in C1COCCO1); 0.862 (in CC1CCCCC1); 0.296 (in CC#N); 0.614 (in CCOC(C)=O); 0.747 (in CCOCC). The photoluminescence quantum yield (in CN(C)C=O) came to 0.187, the photoluminescence quantum yield (in CO) is 0.308, the photoluminescence quantum yield (in COC(C)=O) was found to be 0.374 and the photoluminescence quantum yield (in ClC(Cl)Cl) was determined as 0.86.

As to `COc1ccc(-c2cn3ccc[n+]3[n-]2)cc1`, under “in ClCCl”, the photoluminescence quantum yield was 0.062.

`O[Si](c1c2ccccc2cc2ccccc12)(c1c2ccccc2cc2ccccc12)c1c2ccccc2cc2ccccc12` returned a photoluminescence quantum yield (in ClC(Cl)Cl) of 0.015.

For the setting “in C1CCOC1”, `C(=C\c1ccccn1)/c1ccc(N(c2ccc(/C=C/c3ccccn3)cc2)c2ccc(-c3nc4ccccc4nc3-c3ccc(N(c4ccc(/C=C/c5ccccn5)cc4)c4ccc(/C=C/c5ccccn5)cc4)cc3)cc2)cc1` had a photoluminescence quantum yield of 0.55.

Take `[C-]#[N+]c1ccc(-c2ccc(N)cc2)cc1`: the photoluminescence quantum yield (in C1CCCCC1) was 0.66; the photoluminescence quantum yield (in C1CCOC1) was 0.78; the photoluminescence quantum yield (in C1COCCO1) came to 0.79; the photoluminescence quantum yield (in CC#N) was found to be 0.65; the photoluminescence quantum yield (in CC(C)=O) is 0.52; the photoluminescence quantum yield (in CCCCCC) worked out at 0.76. The photoluminescence quantum yield reads like this: (in CCOC(C)=O) 0.67; (in CN(C)C=O) 0.78; (in CO) 0.1; (in CS(C)=O) 0.77; (in Cc1ccccc1) 0.68; (in ClC(Cl)Cl) 0.2. Moreover, the photoluminescence quantum yield was found to be 0.75 (in ClCCl), 0.0088 (in O) and 0.06 (in c1ccncc1).

On to `COc1ccc(-c2nc(-c3ccccc3O)c(-c3ccccc3O)n2-c2ccc(C)cc2)cc1`, for which the photoluminescence quantum yield amounted to 0.01 (in C1CCOC1), 0.01 (in CS(C)=O), 0.01 (in ClC(Cl)Cl) and 0.04 (in ClCCl).

Compound `O=C1/C(=C2\Sc3ccc(S(=O)(=O)Nc4ccccc4)cc3C2=O)Sc2ccc(S(=O)(=O)Nc3ccccc3)cc21` had a photoluminescence quantum yield (in C1COCCO1) of 0.358, a photoluminescence quantum yield (in CN(C)C=O) of 0.018, a photoluminescence quantum yield (in CO) of 0.006 and a photoluminescence quantum yield (in CS(C)=O) of 0.004.

For the compound `COc1ccc(-c2nc(-c3ccc(OC)cc3)c(-c3ccc(OC)cc3)[nH]2)cc1`, the photoluminescence quantum yield (in CO) came to 0.2.

In turn, `CC(C)(C)c1ccc(-c2c(-c3cccc(-n4c5ccccc5c5ccccc54)c3)c(C#N)c(-c3cccc(-n4c5ccccc5c5ccccc54)c3)c(-c3ccc(C(C)(C)C)cc3)c2-c2ccc(C(C)(C)C)cc2)cc1` registered a photoluminescence quantum yield (in C1CCOC1) of 0.064.

As for `Nc1ccc2c(c1)Cc1ccccc1-2`, the photoluminescence quantum yield (in C1CCCCC1) worked out at 0.74; the photoluminescence quantum yield (in C1COCCO1) amounted to 0.73; the photoluminescence quantum yield (in CC#N) came to 0.52; the photoluminescence quantum yield (in CO) was found to be 0.84; the photoluminescence quantum yield (in O) is 0.2.

`ClP1(Cl)=NP(Cl)(Cl)=NP(Cl)(Oc2ccc3ccc4cccc5ccc2c3c45)=N1` (stereo unspecified) registered a photoluminescence quantum yield (in ClCCl) of 0.55.

With `Cn1cccc1-c1cc(C#N)ccc1C#N`, the photoluminescence quantum yield reads like this: (in C1CCOC1) 0.139; (in CC#N) 0.024; (in CCCCCC) 0.378; (in CCCCOCCCC) 0.281; (in CCOCC) 0.206.

Compound `COc1cc2c(cc1OC)C1=C[C@H](c3ccccc3)C3(C(C#N)=C(C#N)N1CC2)c1ccccc1-c1ccccc13` came in with a photoluminescence quantum yield (in ClCCl) of 0.00173.

For `C=CCNc1ccc2ccc3oc4cc(=[N+]5CCCC5)ccc-4nc3c2c1`, the photoluminescence quantum yield is, setting by setting: (in CC#N) 0.1; (in CCO) 0.04; (in ClCCl) 0.13; (in O) 0.006.

For `CC1(C)c2ccccc2N(c2ccc(-c3ncccn3)cc2)c2ccccc21`, the photoluminescence quantum yield (in O=P(c1ccccc1)(c1ccccc1)c1ccc2oc3ccc(P(=O)(c4ccccc4)c4ccccc4)cc3c2c1) is 0.83.

`O=C(c1ccc(N(c2ccccc2)c2ccccc2)cc1)[C@H]1[C@H](c2ccc(F)cc2)C[C@](O)(c2ccccn2)C[C@]1(O)c1ccccn1` gave a photoluminescence quantum yield (in C1CCOC1) of 0.4; a photoluminescence quantum yield (in CC#N) of 0.02; a photoluminescence quantum yield (in CCO) of 0.01; a photoluminescence quantum yield (in CCOC(C)=O) of 0.34; a photoluminescence quantum yield (in CN(C)C=O) of 0.02; a photoluminescence quantum yield (in ClCCl) of 0.21. In addition, the photoluminescence quantum yield (in c1ccccc1) was found to be 0.74.

As to `CCC1=C(C)C2=Cc3cc(I)c(I)n3[B-](F)(F)[N+]2=C1C`, the photoluminescence quantum yield by setting is: (in C1CCCCC1) 0.26; (in CC(C)=O) 0.16; (in CCO) 0.2; (in CCOC(C)=O) 0.19; (in CO) 0.17; (in OCC(F)(F)F) 0.12.

Compound `CCC1=C(C)C(=O)n2c1cc1c(CCC(=O)O)c(C)c(C)n1c2=O` gave a photoluminescence quantum yield (in CO) of 0.95, a photoluminescence quantum yield (in CS(C)=O) of 1, a photoluminescence quantum yield (in ClC(Cl)Cl) of 1 and a photoluminescence quantum yield (in c1ccccc1) of 0.84.

Turning to `COc1cccc(OC)c1-c1c2ccc(=[N+]3CCNCC3)cc-2oc2cc(N3CCNCC3)ccc12`, the photoluminescence quantum yield is 0.008 (in CCO) and 0.14 (in O).

Turning to `CC(C)c1cccc(C(C)C)c1N1C(=O)c2cccc3c(Oc4ccc(Cl)cc4)ccc(c23)C1=O`, the photoluminescence quantum yield (in ClCCl) is 0.64.
